From patent US20260091086A1, “POLYPEPTIDE COMBINATIONS AND USES THEREOF” (MEDIMMUNE LIMITED, priority 2024, published 2026)
Numbered stars: 1 amine (or outer) side, 2 acyl side, 3 side chain; on linkers, the order of the positions; unused ones are H or OH. Bridge positions count the residues as written; N and C are the ends. Square brackets hold non-standard residues; d marks the D form. Side chains are listed from the residue outwards. Ends that are not written are not given here. * marks the point of attachment. C18 diacid = O=C(O)CCCCCCCCCCCCCCCCC(=O)*; γGlu = O=C(O)[C@H](CCC(=O)[*:2])N[*:1]; αMeF = C[C@](N)(Cc1ccccc1)C(=O)O

Legend:
[1] = system: DIO rat; test: Example 3: repeat dose DIO rat gastric emptying study; format: in vivo; conditions: 2 nmol/kg monotherapy, beyond 7 days of treatment
Excerpt: Study Design: […] X-ray fluoroscopic quantification was used to assess gastric emptying. In this experiment, the LAA was that of SEQ ID NO: 11, and the GLP-1R agonist was semaglutide.

[2] = system: DIO Sprague-Dawley rats; test: Example 6 Study 3: 28-day treatment and 14-day wash-out; format: in vivo, rat
Procedure: Study 3 Design: Male DIO Sprague-Dawley rats (Charles River Laboratories) were fed a high-fat diet (32.5% kcal fat, D12266B; […] Rats were dosed SC QD for 28 days with Vehicle (n=16), GLP-1RA at 5 nmol/kg (n=16), LAA (“SARA”) at 7.5 nmol/kg (n=16), or GLP1RA+LAA at 5+7.5 nmol/kg respectively (n=16). Following 28 days of treatment half the animals per group stopped treatment and were allowed to wash-out for 14 days (n=8/group), while the remaining animals per group were euthanized with blood/tissues collected. Body weight and food intake were measured daily, and body composition was measured before study start, on day 27 and then again on day 42. Data reported as mean±standard error of the mean (SEM); data analysis performed using GraphPad Prism. In this experiment, the LAA was that of SEQ ID NO: 11, and the GLP-1RA was semaglutide.

[3] = system: DIO Sprague-Dawley rats; test: Example 3: 28-day body weight study in DIO rats; format: in vivo, rat; conditions: day 28; LAA 7.5 nmol/kg SC QD
Procedure: Study Design: Male DIO Sprague-Dawley rats were fed a high-fat diet (32.5% kcal fat, D12266B; Research Diets) for approximately 8 weeks prior to study start. Rats were dosed once daily SC for 28 days with Vehicle, GLP-1/GCG (1.5 nmol/kg or 5 nmol/kg), LAA (7.5 nmol/kg) or a combination of GLP-1/GCG and LAA (1.5 and 7.5 nmol/kg, or 5 nmol/kg and 7.5 nmol/kg, respectively) with an n=6/group. Body weight was monitored daily throughout the study. Data reported as mean±standard error of the mean (SEM); data analysis performed using GraphPad Prism-statistical analysis performed using One-way ANOVA with Tukey ad hoc analysis (*p<0.05, **p<0.01, ***0<0.001, ****p<0.0001). In this experiment, the LAA was that of SEQ ID NO: 11, and the GLP-1/GCG dual-agonist was cotadutide.

[4] = system: diet-induced obese (DIO) Sprague-Dawley rats; test: Example 2: 28-day combination study in DIO rats (body weight, EchoMRI body composition); format: in vivo, rat; conditions: LAA 10 nmol/kg, GLP-1/GCG 5.4 nmol/kg or both
Procedure: Study Design: Male diet-induced obese (DIO) Sprague-Dawley rats were fed a high fat diet (45% fat, D12451; Research Diets) for 34 weeks prior to study start. […] Research Diets). […] Average body weight for all DIO rats at start of study was 722.4+10.1 grams. Body composition was measured by EchoMRI on day-7 and day 26. In this experiment, the LAA was that of SEQ ID NO: 11, and the GLP-1/GCG dual-agonist was cotadutide. Data reported as mean±standard error of the mean (SEM); data analysis performed using GraphPad Prism-statistical analysis performed using One-way ANOVA with Tukey ad hoc analysis.

[5] = system: DIO rats; test: Example 7: 28-day LAA and GLP/GIP dual agonist study; format: in vivo, rat
Procedure: Study Design: Male rats were fed a high-fat diet (45% kcal fat-D12451; Research Diets) or chow control matched diet (10% kcal fat-D12450K; […] Control rats were dosed SC with Vehicle. Body weight was monitored daily through-out study and body composition measured by EchoMRI at baseline (week-1) and end of study (week 4). […]

[6] = system: Wistar Han rats; test: Example 4: 3-month subcutaneous study, body weight; format: in vivo, rat; conditions: for Body Weight Comparison, Day 92 vs. Control Group 1 Day 92 / Body Weight Gain (Day 92 vs Day −1) / Mean Body Weight at Day 92: dose levels 2000/0, Group 4
Procedure: Study Design: Male (9-11 weeks of age) and female (10-11 weeks of age) Wistar Han rats were SC administered with Vehicle/Vehicle (group 1—for LAA of SEQ ID NO: 11 and GLP-1/GCG of SEQ ID NO: 35), LAA of SEQ ID NO: 11 and GLP-1/GCG of SEQ ID NO: 35 (group 2—500 and 5 μg/kg respectively), LAA of SEQ ID NO: 11 and GLP-1/GCG of SEQ ID NO: 35 (group 3—2000 and 5 μg/kg respectively), SEQ ID NO: 11 and Vehicle for SEQ ID NO: 35 (group 4—2000 μg/kg and 0 μg/kg respectively), or Vehicle for SEQ ID NO: 11 and SEQ ID NO: 35 (group 5—0 and 5 μg/kg respectively) daily for 91 days. Dosing for LAA of SEQ ID NO: 11 was dose escalated with group 2 receiving 250 μg/kg from day 1-5 and 500 μg/kg for duration of study, and groups 3 and 4 receiving 250 μg/kg SEQ ID NO: 11 from day 1-5, 500 μg/kg SEQ ID NO: 11 from days 7-13 and 2000 μg/kg for duration of study. There was a n=10/group per gender.

Substance: K(γE-γE-C18diacid)[CNTATC]ATQRLANFLRHSSNN(αMePhe)GPILPPTEVGSNTY-amide (K([γGlu-γGlu-C18 diacid])CNTATCATQRLANFLRHSSNN[αMeF]GPILPPTEVGSNTY-NH2; disulfide 2-7) [LAA]
- GE delay on repeat dosing [1]: maintained GE delay beyond 7 days of treatment
- inhibition of food intake compared to vehicle ([2]; SC QD 28 days, LAA 7.5, GLP-1RA 5, or 5+7.5 nmol/kg): ~−20%
- BW loss compared to vehicle ([2]; SC QD 28 days, LAA 7.5, GLP-1RA 5, or 5+7.5 nmol/kg, FIG. 5I): −9.3%
- lean mass change ([2]; baseline to day 27, FIG. 5K): preservation of lean mass
- fat mass change from baseline ([2]; baseline to day 27, LAA 7.5, GLP-1RA 5, or 5+7.5 nmol/kg, FIG. 5J): -17.7 g
- mean change in body weight normalized to Vehicle [3]: −13.7%
- body weight loss vs Vehicle ([4]; SC QD, FIG. 1A): lost significantly more body weight than Vehicle treated rats
- fat mass change (EchoMRI) ([4]; day 26): lost a significant amount of fat mass compared to Vehicle treatment
- lean mass change (EchoMRI) ([4]; day 26): little effect on lean mass
- body weight change ([5]; day 28, mono-treatment 10 nmol/kg SC QD): −5.6%
- change in fat mass (g) ([5]; end of study (week 4), EchoMRI, FIG. 6C): significant decrease in fat mass
- change in lean mass (g) ([5]; end of study, EchoMRI, mono-treatment, FIG. 6D): no effect on lean mass
- Body weight at study day 92 vs Vehicle ([6]; both male and female, groups 2-5): significantly lower
- Body Weight Comparison, Day 92 vs. Control Group 1 Day 92 ([6]; female): 89%
- Body Weight Gain (Day 92 vs Day −1) ([6]; female): 110%
- Mean Body Weight at Day 92 ([6]; female): 222.1 grams
- Body Weight Comparison, Day 92 vs. Control Group 1 Day 92 ([6]; male): 79%
- Body Weight Gain (Day 92 vs Day −1) ([6]; male): 119%
- Mean Body Weight at Day 92 ([6]; male): 319.2 grams
